In patent US10322133B2, “Synthetic lethal drug combination for treating renal cell carcinoma” (Commissariat a l'Energie Atomique et aux Energies …, priority 2015, dated 2019):

What was measured:
786-O VHL^− cells [1] = assay: FACS cell cycle analysis (Propidium Iodide); format: cell-based, human; conditions: hypoxic conditions, 48 h
Description: FIG. 6: A) FACS analysis of 786-O VHL^− cells treated for 48 h with indicated compounds under hypoxic conditions and labeled with Propidium Iodide for cell cycle analysis.

786-O VHL^− cells [2] = assay: 3D assay on Multicellular Tumor Spheroids (Propidium Iodide); format: cell-based, human; conditions: 5 μM, 48 h, P≤0.0001 Kruskal-Wallis
Description: For 3-D culture (spheroids), the spheroids were prepared in 96-wells U-bottom tissue culture plate with low evaporation Lid (Microtest™, Becton Dickinson Labware, San Jose, Calif.) coated with 20 mg/mL of poly-HEMA per well to allow the formation of spheroids. Renal cancer cells 786-O WT, 786-O pBABE and 786-O VHL (taken from exponentially growing cultures) were seeded at a density of […] in RPMI supplemented with 10% FCS. 90 μL (9×10^2 cells) of these cell suspensions were deposed in each well then tissue culture plates were incubated at 37° C. and 5% CO2 for 3 days before drug treatment for further 48 h.
Three days pre-formed spheroids were treated with the different drugs at indicated concentrations during 48 H. After that, Hoechst (200 ng/mL) and Propidium Iodide (1 μg/mL) were added as markers of cell nuclei and cell death respectively. Images of IP and Hoechst fluorescence were acquired at the CMBA platform using the automated microscope ArrayScanVTI (ThermoScientific). ArrayScanVTI is a fluorescent microscope which allows the rapid and fully automated acquisition of images of fixed or live cells in 96-well microplates at different magnifications. Dedicated softwares are used to automatically perform High Content image Analysis like spheroid area measurement, fluorescent intensity measurement of each staining and counting of the number of dead cells.

786-O VHL^− cells [3] = assay: Viability assay (PrestoBlue) / high-throughput drug-gene screening; format: cell-based, human; conditions: for sensitivity of cells to ATM inhibitor after shRNA-mediated knockdown of CK2α (cell viability): shCK2α vs shCTRL 786-O cells, 48 h
Description: Cytotoxicity was measured using PrestoBlue assay (Invitrogen, Carlsbad, Calif.). Cell lines were seeded in a 96-well microtiter plate at a concentration of 5×10^4 cells/mL. Cells were allowed to attach for 24 hrs at 37° C. and 5% CO2. The cells were exposed to the negative control DMSO or positive drug CX-4945 at 20 μM for 48 h or the other molecules at indicated concentrations. […] DMSO was used as a negative control and 20 μM CX-4945 as a positive control. Plates were further cultured for 48 hrs. Cells were labeled with vital Hoechst (33342) together with Prestoblue and the fluorescence reading was made through the Tecan's Infinite M100 reader. See Flow chart in FIG. 1. Raw data were first imported into the database of the home-made analysis software TAMIS, used for analysis. […] Finally, for each compound X/targeted-shRNA Y pair and assay, the activity percentage obtained with the compound X/Ctrl-shRNA was taken from the compound X/targeted-shRNA Y activity percentage in order to identify compound X/targeted-shRNA Y pair showing additive, or even synergistic, effect compared to compound X/Ctrl-shRNA pair.

ATM = biological target: T1, ATM (Homo sapiens, UniProt Q13315); assay: Western blot of ATM phosphorylation in 786-O cells; format: cell-based; conditions: 786-O VHL^+/−, 1.5% O2, 5 μM, 48 h
T1 construct: endogenous in cells; host or cells: 786-O cells (VHL- and VHL+), cultured under 1.5% O2
Description: Blotted membranes were blocked during 1 h at room temperature with saturation buffer (1% BSA in TBST), and then incubated with primary antibody diluted in saturation buffer, during 1 h 30. Secondary antibodies were added for 1 hour.

T1 sequence (Q13315 whole entry): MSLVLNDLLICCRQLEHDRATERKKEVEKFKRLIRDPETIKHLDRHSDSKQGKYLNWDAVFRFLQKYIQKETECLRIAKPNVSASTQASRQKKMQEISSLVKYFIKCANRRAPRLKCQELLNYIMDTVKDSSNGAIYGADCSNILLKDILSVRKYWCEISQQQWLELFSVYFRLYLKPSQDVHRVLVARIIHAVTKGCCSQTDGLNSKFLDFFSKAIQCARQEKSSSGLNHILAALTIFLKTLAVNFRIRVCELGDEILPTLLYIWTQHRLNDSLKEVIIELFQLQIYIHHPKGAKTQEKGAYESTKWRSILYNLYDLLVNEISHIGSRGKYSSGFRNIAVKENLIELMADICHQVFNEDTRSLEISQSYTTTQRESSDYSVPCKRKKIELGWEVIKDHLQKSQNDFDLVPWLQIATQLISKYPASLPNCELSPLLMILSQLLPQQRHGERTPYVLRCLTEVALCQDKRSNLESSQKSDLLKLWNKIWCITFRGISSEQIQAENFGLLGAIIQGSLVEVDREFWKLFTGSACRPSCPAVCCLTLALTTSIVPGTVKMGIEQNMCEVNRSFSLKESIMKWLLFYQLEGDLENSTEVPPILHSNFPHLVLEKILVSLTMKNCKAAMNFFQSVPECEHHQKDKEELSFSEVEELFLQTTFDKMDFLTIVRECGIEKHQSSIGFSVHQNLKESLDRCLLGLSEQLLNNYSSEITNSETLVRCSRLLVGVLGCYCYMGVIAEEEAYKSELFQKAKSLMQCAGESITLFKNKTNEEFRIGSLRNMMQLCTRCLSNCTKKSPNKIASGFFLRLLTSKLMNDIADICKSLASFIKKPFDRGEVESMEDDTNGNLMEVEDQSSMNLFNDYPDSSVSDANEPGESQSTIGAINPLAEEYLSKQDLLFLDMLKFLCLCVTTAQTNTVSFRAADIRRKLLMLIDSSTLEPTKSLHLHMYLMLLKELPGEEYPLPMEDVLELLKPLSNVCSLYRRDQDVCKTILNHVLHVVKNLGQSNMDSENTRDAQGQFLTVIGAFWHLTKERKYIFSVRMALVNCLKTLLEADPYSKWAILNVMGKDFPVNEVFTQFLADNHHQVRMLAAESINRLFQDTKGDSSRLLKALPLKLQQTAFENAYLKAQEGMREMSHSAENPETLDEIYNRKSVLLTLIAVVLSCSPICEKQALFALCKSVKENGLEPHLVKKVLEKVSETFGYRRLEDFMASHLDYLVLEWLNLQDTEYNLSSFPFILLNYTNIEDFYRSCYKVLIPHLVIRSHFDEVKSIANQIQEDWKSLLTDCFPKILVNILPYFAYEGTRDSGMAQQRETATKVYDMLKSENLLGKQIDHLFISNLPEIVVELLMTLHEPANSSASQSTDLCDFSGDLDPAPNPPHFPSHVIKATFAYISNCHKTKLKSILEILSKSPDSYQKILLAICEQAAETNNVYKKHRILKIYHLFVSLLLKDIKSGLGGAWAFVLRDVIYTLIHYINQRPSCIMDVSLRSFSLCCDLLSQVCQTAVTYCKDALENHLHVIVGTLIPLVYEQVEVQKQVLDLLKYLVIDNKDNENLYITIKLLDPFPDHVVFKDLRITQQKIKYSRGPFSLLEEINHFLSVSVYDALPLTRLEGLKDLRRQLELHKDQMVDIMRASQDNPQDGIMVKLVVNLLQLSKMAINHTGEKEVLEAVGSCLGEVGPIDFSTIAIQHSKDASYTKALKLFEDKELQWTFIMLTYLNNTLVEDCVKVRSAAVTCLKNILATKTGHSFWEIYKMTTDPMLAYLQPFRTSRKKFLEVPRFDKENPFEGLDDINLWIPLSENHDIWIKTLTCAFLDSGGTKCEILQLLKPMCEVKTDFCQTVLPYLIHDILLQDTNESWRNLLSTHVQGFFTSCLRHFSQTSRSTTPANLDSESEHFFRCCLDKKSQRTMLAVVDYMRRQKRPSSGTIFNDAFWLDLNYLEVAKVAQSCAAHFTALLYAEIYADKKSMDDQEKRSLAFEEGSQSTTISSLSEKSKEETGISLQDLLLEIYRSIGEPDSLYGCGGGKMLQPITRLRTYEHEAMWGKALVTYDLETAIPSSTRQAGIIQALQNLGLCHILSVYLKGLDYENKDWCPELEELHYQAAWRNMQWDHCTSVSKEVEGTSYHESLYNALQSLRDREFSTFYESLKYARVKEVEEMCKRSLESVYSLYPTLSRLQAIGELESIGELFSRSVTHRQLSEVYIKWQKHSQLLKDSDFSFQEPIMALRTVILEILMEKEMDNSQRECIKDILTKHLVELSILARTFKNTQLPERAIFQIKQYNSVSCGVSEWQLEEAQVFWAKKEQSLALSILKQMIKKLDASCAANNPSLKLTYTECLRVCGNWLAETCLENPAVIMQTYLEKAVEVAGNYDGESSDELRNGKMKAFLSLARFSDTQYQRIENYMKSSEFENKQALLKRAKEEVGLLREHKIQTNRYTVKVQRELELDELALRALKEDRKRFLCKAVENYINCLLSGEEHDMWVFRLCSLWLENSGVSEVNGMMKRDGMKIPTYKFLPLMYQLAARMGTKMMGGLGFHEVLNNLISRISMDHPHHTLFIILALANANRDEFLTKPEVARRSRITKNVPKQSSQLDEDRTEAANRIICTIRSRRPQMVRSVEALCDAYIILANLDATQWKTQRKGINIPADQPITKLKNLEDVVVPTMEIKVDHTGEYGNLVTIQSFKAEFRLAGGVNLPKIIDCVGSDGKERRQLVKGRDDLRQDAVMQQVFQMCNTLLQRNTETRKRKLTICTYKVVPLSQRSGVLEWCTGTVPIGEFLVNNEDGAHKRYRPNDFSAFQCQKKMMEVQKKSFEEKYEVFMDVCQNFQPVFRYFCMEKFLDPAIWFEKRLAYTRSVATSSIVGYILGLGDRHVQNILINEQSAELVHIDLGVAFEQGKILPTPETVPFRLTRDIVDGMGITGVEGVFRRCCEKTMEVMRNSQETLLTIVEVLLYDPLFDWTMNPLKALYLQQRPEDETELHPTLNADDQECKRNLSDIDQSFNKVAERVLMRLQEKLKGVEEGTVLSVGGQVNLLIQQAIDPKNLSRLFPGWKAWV

SMILES | effect on G1 phase (786-O VHL^− cells [1]) | cell death in shATM MTS versus vehicle (786-O VHL^− cells [2]) | sensitivity of cells to ATM inhibitor after shRNA-mediated knockdown of CK2α (cell viability) (786-O VHL^− cells [3]) | efficiency of ATM inhibitor compared with KU-55933 (786-O VHL^− cells [3]; 786-O cell viability, with CK2 inhibitors (FIG. 2C)) | inhibition of ATM (phosphorylation of P-ATM Ser1981) (ATM) | cell death in shCK2α MTS versus vehicle (DMSO) (786-O VHL^− cells [2])
O=C(O)c1ccc2c(c1)nc(Nc1cccc(Cl)c1)c1ccncc12 [CX-4945, 5-(3-chlorophenylamino)benzo[c][2,6]naphthyridine-8-carboxylic acid] | without effect | Significant difference |  |  |  | 
O=c1cc(-c2cccc3c2Sc2ccccc2S3)oc(N2CCOCC2)c1 [KU-55933, 2-Morpholin-4-yl-6-thianthren-1-yl-pyran-4-one] |  |  | enhanced the sensitivity |  |  | 
C[C@@H]1CN(CC(=O)Nc2ccc3c(c2)Cc2cccc(-c4cc(=O)cc(N5CCOCC5)o4)c2S3)C[C@H](C)O1 [KU-60019, 2-((2S,6R)-2,6-dimethylmorpholino)-N-(5-(6-morpholino-4-oxo-4H-pyran-2-yl)-9H-thioxanthen-2-yl)acetamide] |  |  | enhanced the sensitivity | significantly more efficient | clearly inhibited | Significant difference
